In publication PMC5851644, “Development of Potent Inhibitors of Receptor Tyrosine Kinases by Ligand-Based Drug Design and Target-Biased Phenotypic Screening” (Journal of Medicinal Chemistry, 2018):

Columns and labels:
BT474 cells (AXL–) = test: Dose response cell viability assay (PrestoBlue, day 5); assay type: cell-based; details: Homo sapiens, BT-474, 120 h, PrestoBlue at day 5
[1] = tested on: AXL-overexpressing mouse breast cancer cells (AXL+); test: as above; assay type: cell-based; details: PrestoBlue at day 5
AKT = test: Kinase IC50, 33P radioisotope assay (Reaction Biology); assay type: biochemical; details: recombinant kinase, 10 μM ATP
Protocol: The panel, which included the three members of the TAM family, was selected based on the selectivity profile frequently found for other AXL inhibitors.[9] Kinase inhibition studies were performed by Reaction Biology Corporation, USA, by measuring ^33P incorporation on the corresponding kinase substrate relative to DMSO.
To understand how these structural changes had affected the kinase selectivity of the new compounds, 12a–d were screened against the 12-member panel of kinases used for previous hits. As before, kinase inhibition screenings were performed using radioisotope based methods by Reaction Biology Corporation.
(§1) 6.2. Dose response cell viability assay
(§2) with 95 µl of fresh medium.
(§3) a separate 96-well intermediate plate.
(§4) containing cells. […] After 5 d, PrestoBlue™ cell
(§5) 6.3. Kinase screening assay

AXL = biological target: T1, AXL (Homo sapiens, UniProt P30530); details: cited from earlier work
T1 construct: purchased Reaction Biology Corporation
T1 sequence (P30530 26-894): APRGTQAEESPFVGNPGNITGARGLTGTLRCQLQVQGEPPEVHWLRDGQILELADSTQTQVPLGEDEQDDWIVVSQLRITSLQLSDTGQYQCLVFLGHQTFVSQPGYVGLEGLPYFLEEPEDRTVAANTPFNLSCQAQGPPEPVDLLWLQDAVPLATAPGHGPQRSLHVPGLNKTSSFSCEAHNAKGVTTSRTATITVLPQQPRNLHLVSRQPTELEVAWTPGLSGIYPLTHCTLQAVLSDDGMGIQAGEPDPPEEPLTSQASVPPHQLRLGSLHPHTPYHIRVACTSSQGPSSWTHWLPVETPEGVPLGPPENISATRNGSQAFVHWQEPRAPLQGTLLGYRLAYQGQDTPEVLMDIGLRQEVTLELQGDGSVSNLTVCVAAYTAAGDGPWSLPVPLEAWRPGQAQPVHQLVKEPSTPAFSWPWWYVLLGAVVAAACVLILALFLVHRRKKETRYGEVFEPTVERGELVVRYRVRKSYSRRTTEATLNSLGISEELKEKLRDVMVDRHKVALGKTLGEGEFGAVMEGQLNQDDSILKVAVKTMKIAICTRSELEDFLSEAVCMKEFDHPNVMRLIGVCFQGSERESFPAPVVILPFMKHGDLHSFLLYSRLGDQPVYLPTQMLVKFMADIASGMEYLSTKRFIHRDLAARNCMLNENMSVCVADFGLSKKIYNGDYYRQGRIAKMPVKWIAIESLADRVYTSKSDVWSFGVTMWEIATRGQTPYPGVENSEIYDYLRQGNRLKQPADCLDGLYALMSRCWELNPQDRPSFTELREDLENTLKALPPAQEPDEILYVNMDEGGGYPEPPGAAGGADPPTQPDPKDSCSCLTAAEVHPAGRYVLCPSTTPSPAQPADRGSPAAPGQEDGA

MOLM-13 cells = test: Dose response cell viability assay (PrestoBlue, day 5); assay type: cell-based; details: Homo sapiens, MOLM-13, 120 h; PrestoBlue at day 5
Protocol: as §1, §2, §3, §4, §5

MV4-11 cells = test: as above; assay type: cell-based; details: Homo sapiens, MV4-11, 120 h; PrestoBlue at day 5
Protocol: as §1, §2, §3, §4, §5

SMILES	EC50 (BT474 cells (AXL–)) [µM]	EC50 ([1]; Mus musculus, 120 h) [µM]	IC50 (AKT) [µM]	other results
CNc1ncc2c(-c3ccc(OC)cc3)nn(CC3CCCC3)c2n1 [Compound 7a]	24	14.1	–	–
CNc1ncc2c(-c3ccc(N4CCNCC4)nc3)nn(Cc3cn(-c4ccsc4C(=O)OC)nn3)c2n1 [Compound 10d]	6.49	1.83	> 10	–
Nc1nc(Nc2ccc3c(c2)CC[C@@H](N2CCCC2)CC3)nn1-c1cc2c(nn1)-c1ccccc1CCC2 [BGB324, reference compound]	–	–	> 10	–
COc1cc2c(Oc3ccc(NC(=O)C4(C(=O)Nc5ccc(F)cc5)CC4)cc3F)ccnc2cc1OCCCN1CCOCC1 [foretinib]	–	–	–	reported to inhibit AXL at (AXL): 11 nM
CNc1ncc2c(-c3cccc(C(N)=O)c3)nn(CC3CCCC3)c2n1 [Compound 7e]	24.7	16.3	–	–
CNc1ncc2c(-c3ccc(N4CCNCC4)nc3)nn(Cc3cn(C4CCCC4O)nn3)c2n1 (centres unmarked) [Compound 10b]	18.4	34.1	–	–
CNc1ncc2c(-c3ccc(N4CCNCC4)nc3)nn(Cc3cn(-c4ccc(OC)cc4)nn3)c2n1 [Compound 10f]	16.8	3.7	–	–
CNc1ncc2c(-c3ccc(N4CCNCC4)nc3)nn(CC3OCCO3)c2n1 [Compound 7g]	20.5	–	> 10	EC50 [1]: 10.3 µM
CNc1ccc(-c2nn(Cc3cn(Cc4ccccc4)nn3)c3nc(NC)ncc23)cn1 [Compound 12f]	> 100	> 100	–	EC50 (AXL+ cells) [1]: completely inactive
CNc1ncc2c(-c3ccc(N4CCN(C)CC4)nc3)nn(CC3CCCC3)c2n1 [Compound 13b]	–	–	> 10	EC50 (MOLM-13 cells): 0.04 µM; EC50 (MV4-11 cells): 0.49 µM
CCN1CCN(c2ccc(-c3nn(CC4CCCC4)c4nc(NC)ncc34)cn2)CC1 [Compound 13c]	–	–	> 10	EC50 (MOLM-13 cells): 0.94 µM; EC50 (MV4-11 cells): 3.49 µM
CNc1ncc2c(-c3ccc(OC)c(OC)c3)nn(CC3CCCC3)c2n1 [Compound 7b]	26	14.1	–	–
CNc1ncc2c(-c3ccc(N4CCNCC4)cc3)nn(Cc3cn(Cc4ccccc4)nn3)c2n1 [Compound 12a]	32.3	39.7	> 10	–
CNc1ncc2c(-c3ccc(N4CCN(C(=O)C(C)(C)C)CC4)nc3)nn(Cc3cn(Cc4ccccc4)nn3)c2n1 [Compound 12d]	12.4	9.16	> 10	–
CNc1ncc2c(-c3ccc(N4CCNCC4)nc3)nn(Cc3cn(Cc4ccccc4)nn3)c2n1 [Compound 10a]	3.62	1.47	> 10	–
CCN1CCN(c2ccc(-c3nn(Cc4cn(Cc5ccccc5)nn4)c4nc(NC)ncc34)cn2)CC1 [Compound 12c]	> 100	> 100	–	–
CNc1ncc2c(-c3ccc(F)cc3)nn(CC3OCCO3)c2n1 [Compound 7i]	60	65.8	–	–
CNc1ncc2c(-c3ccc(N4CCN(C(=O)C(C)(C)C)CC4)nc3)nn(CC3CCCC3)c2n1 [Compound 13d]	–	–	> 10	EC50 (MOLM-13 cells): 1.3 µM; EC50 (MV4-11 cells): 1.44 µM
CNc1ncc2c(-c3ccc(OC)cc3)nn(CC3OCCO3)c2n1 [Compound 7h]	13.1	–	> 10	EC50 [1]: 5.02 µM
CNc1ncc2c(-c3ccc(N4CCNCC4)nc3)nn(CC3CCCC3)c2n1 [Compound 7f]	–	–	> 10	–
CNc1ncc2c(-c3ccc(N4CCN(C)CC4)nc3)nn(Cc3cn(Cc4ccccc4)nn3)c2n1 [Compound 12b]	25.7	6.91	> 10	–
